# Measured values taken from PMC9090415, “Discovery of small molecule inhibitors of Plasmodium falciparum apicoplast DNA polymerase” (Journal of Enzyme Inhibition and Medicinal Chemistry, 2022).
# Target: P. falciparum apicoplast DNA polymerase (Pf-apPOL) (Plasmodium falciparum, UniProt Q8ILY1)
# Test: Fluorescence-based high-throughput DNA polymerase assay (molecular beacon), primary screen and dose-response
# Format: biochemical
# Settings: for DNA Pol: 90 min, 10 µM; for % inhibition apPOL 180' 2.5 / % inhibition apPOL 180' 5 / % inhibition apPOL 180' 10 / % inhibition apPOL 180' 20 / % inhibition apPOL 180' 40 / % inhibition apPOL 180' 80: read at 180'
# How it was run: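 Single-point screening used 10 µM compound with 20 nM polymerase, 20 nM hairpin substrate and 6 µM dNTPs for 90 min at 25 °C. Confirmatory titrations (2.5–80 µM) followed fluorescence at three times, and IC50 was derived from a fit including a cooperativity term n.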
# [1] = "DNA Pol" of the 186 hits list (screen value)
# Sequence of P. falciparum apicoplast DNA polymerase (Pf-apPOL) (Q8ILY1 entry or part of it): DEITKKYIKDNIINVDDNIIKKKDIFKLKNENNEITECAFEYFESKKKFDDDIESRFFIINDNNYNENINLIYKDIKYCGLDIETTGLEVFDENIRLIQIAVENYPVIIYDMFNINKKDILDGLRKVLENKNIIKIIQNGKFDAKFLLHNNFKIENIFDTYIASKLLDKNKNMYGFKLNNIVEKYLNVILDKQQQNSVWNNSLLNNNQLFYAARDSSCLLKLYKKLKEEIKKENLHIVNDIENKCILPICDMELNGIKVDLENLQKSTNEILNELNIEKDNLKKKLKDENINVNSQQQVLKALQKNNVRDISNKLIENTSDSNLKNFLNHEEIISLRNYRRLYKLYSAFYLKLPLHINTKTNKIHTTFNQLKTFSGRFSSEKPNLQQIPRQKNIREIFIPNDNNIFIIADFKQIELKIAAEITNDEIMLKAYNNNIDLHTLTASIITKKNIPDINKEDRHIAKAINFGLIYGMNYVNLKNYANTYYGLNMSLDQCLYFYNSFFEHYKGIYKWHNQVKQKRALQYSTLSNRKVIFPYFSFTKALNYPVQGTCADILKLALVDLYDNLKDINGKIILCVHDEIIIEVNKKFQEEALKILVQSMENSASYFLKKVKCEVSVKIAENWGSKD
smiles,measurement,setting,value
"COc1cccc(C(=O)N2CCc3c(nc4cc(-c5ccccc5)[nH]n4c3=O)C2)c1OC [Molecule 22, COc1c(OC)cccc1C(=O)N1CCc2c(C1)nc1n(c2=O)[nH]c(c1)c1ccccc1]",DNA Pol,[1],45
same,% inhibition Apo pol 10',"DRC-1, concentration 2.5",-0.412%
same,% inhibition Apo pol 10',"DRC-1, concentration 5",25%
same,% inhibition Apo pol 10',"DRC-1, concentration 10",67%
same,% inhibition Apo pol 10',"DRC-1, concentration 20",81%
same,% inhibition Apo pol 10',"DRC-1, concentration 40",88%
same,% inhibition Apo pol 10',"DRC-1, concentration 80",81%
same,% inhibition Apol 90',"DRC-1, concentration 2.5",-3%
same,% inhibition Apol 90',"DRC-1, concentration 5",12%
same,% inhibition Apol 90',"DRC-1, concentration 10",49%
same,% inhibition Apol 90',"DRC-1, concentration 20",67%
same,% inhibition Apol 90',"DRC-1, concentration 40",83%
same,% inhibition Apol 90',"DRC-1, concentration 80",84%
same,% inhibition apPOL 180',"DRC-1, concentration 2.5",-5.7%
same,% inhibition apPOL 180',"DRC-1, concentration 5",2.34%
same,% inhibition apPOL 180',"DRC-1, concentration 10",32%
same,% inhibition apPOL 180',"DRC-1, concentration 20",49%
same,% inhibition apPOL 180',"DRC-1, concentration 40",73%
same,% inhibition apPOL 180',"DRC-1, concentration 80",78%
same,% inhibition Apo pol 5',"DRC-2, concentration 2.5",-0.913%
same,% inhibition Apo pol 5',"DRC-2, concentration 5",19%
same,% inhibition Apo pol 5',"DRC-2, concentration 10",42%
same,% inhibition Apo pol 5',"DRC-2, concentration 20",52%
same,% inhibition Apo pol 5',"DRC-2, concentration 40",55%
same,% inhibition Apo pol 5',"DRC-2, concentration 80",47%
same,% inhibition Apol 40',"DRC-2, concentration 2.5",-1.15%
same,% inhibition Apol 40',"DRC-2, concentration 5",21%
same,% inhibition Apol 40',"DRC-2, concentration 10",45%
same,% inhibition Apol 40',"DRC-2, concentration 20",61%
same,% inhibition Apol 40',"DRC-2, concentration 40",69%
same,% inhibition Apol 40',"DRC-2, concentration 80",66%
same,% inhibition ApPOL 90',"DRC-2, concentration 2.5",0.469%
same,% inhibition ApPOL 90',"DRC-2, concentration 5",20%
same,% inhibition ApPOL 90',"DRC-2, concentration 10",44%
same,% inhibition ApPOL 90',"DRC-2, concentration 20",61%
same,% inhibition ApPOL 90',"DRC-2, concentration 40",70%
same,% inhibition ApPOL 90',"DRC-2, concentration 80",70%
same,% inhibition apPOL 180',"DRC-2, concentration 2.5",-0.311%
same,% inhibition apPOL 180',"DRC-2, concentration 5",13%
same,% inhibition apPOL 180',"DRC-2, concentration 10",34%
same,% inhibition apPOL 180',"DRC-2, concentration 20",53%
same,% inhibition apPOL 180',"DRC-2, concentration 40",65%
same,% inhibition apPOL 180',"DRC-2, concentration 80",69%
same,% inhibition Apo pol 10',"first DRC, concentration 10",67%
same,% inhibition Apo pol 10',"first DRC, concentration 20",81%
same,% inhibition Apo pol 10',"first DRC, concentration 80",81%
same,% inhibition Apol 90',"first DRC, concentration 10",49%
same,% inhibition Apol 90',"first DRC, concentration 20",67%
same,% inhibition apPOL 180',"first DRC, concentration 20",49%
same,DNA Pol,"primary screen value, DNA Pol",45
"C#CC(C=CC)OC(=O)c1ccccc1C(=O)O (centres unmarked) [Molecule 61, CC=CC(OC(=O)c1ccccc1C(=O)O)C#C]",DNA Pol,"186 hits, DNA Pol (screen value), unit not given",84
same,DNA Pol,"'DNA Pol' (screen value), unit not given",84
same,% inhibition Apo pol 10' 2.5,"DRC-1, read at 10', concentration 2.5",8.856%
same,% inhibition Apo pol 10' 5,"DRC-1, read at 10', concentration 5",15.4135%
same,% inhibition Apo pol 10' 10,"DRC-1, read at 10', concentration 10",32.6686%
same,% inhibition Apo pol 10' 20,"DRC-1, read at 10', concentration 20",51.5021%
same,% inhibition Apo pol 10' 40,"DRC-1, read at 10', concentration 40",73.1045%
same,% inhibition Apo pol 10' 80,"DRC-1, read at 10', concentration 80",83.6168%
same,% inhibition Apol 90' 2.5,"DRC-1, read at 90', concentration 2.5",1.5571%
same,% inhibition Apol 90' 5,"DRC-1, read at 90', concentration 5",4.145%
same,% inhibition Apol 90' 10,"DRC-1, read at 90', concentration 10",16.9852%
same,% inhibition Apol 90' 20,"DRC-1, read at 90', concentration 20",30.9577%
same,% inhibition Apol 90' 40,"DRC-1, read at 90', concentration 40",54.6934%
same,% inhibition Apol 90' 80,"DRC-1, read at 90', concentration 80",70.5531%
same,% inhibition apPOL 180' 2.5,"DRC-1, concentration 2.5",-3.738%
same,% inhibition apPOL 180' 5,"DRC-1, concentration 5",-3.151%
same,% inhibition apPOL 180' 10,"DRC-1, concentration 10",5.1086%
same,% inhibition apPOL 180' 20,"DRC-1, concentration 20",14.9685%
same,% inhibition apPOL 180' 40,"DRC-1, concentration 40",36.8949%
same,% inhibition apPOL 180' 80,"DRC-1, concentration 80",55.2706%
same,% inhibition Apo pol 5',"DRC-2, concentration 80",57%
same,% inhibition Apol 40',"DRC-2, concentration 80",69%
same,% inhibition ApPOL 90',"DRC-2, concentration 20",48%
same,% inhibition ApPOL 90',"DRC-2, concentration 40",57%
same,% inhibition apPOL 180',"DRC-2, concentration 2.5",-4%
same,% inhibition apPOL 180',"DRC-2, concentration 5",-4%
same,% inhibition apPOL 180',"DRC-2, concentration 40",48%
same,% inhibition apPOL 180',"DRC-2, concentration 80",69%
same,% inhibition Apo pol 5' 2.5,"DRC-2, read at 5', concentration 2.5",3.3%
same,% inhibition Apo pol 5' 5,"DRC-2, read at 5', concentration 5",15%
same,% inhibition Apo pol 5' 10,"DRC-2, read at 5', concentration 10",33%
same,% inhibition Apo pol 5' 20,"DRC-2, read at 5', concentration 20",50%
same,% inhibition Apo pol 5' 40,"DRC-2, read at 5', concentration 40",54%
same,% inhibition Apo pol 5' 80,"DRC-2, read at 5', concentration 80",57%
same,% inhibition Apol 40' 2.5,"DRC-2, read at 40', concentration 2.5",3%
same,% inhibition Apol 40' 5,"DRC-2, read at 40', concentration 5",11%
same,% inhibition Apol 40' 10,"DRC-2, read at 40', concentration 10",31%
same,% inhibition Apol 40' 20,"DRC-2, read at 40', concentration 20",52%
same,% inhibition Apol 40' 40,"DRC-2, read at 40', concentration 40",59%
same,% inhibition Apol 40' 80,"DRC-2, read at 40', concentration 80",69%
same,% inhibition ApPOL 90' 2.5,"DRC-2, read at 90', concentration 2.5",0.76%
same,% inhibition ApPOL 90' 5,"DRC-2, read at 90', concentration 5",5.31%
same,% inhibition ApPOL 90' 10,"DRC-2, read at 90', concentration 10",26%
same,% inhibition ApPOL 90' 20,"DRC-2, read at 90', concentration 20",48%
same,% inhibition ApPOL 90' 40,"DRC-2, read at 90', concentration 40",57%
same,% inhibition ApPOL 90' 80,"DRC-2, read at 90', concentration 80",71%
same,% inhibition apPOL 180' 2.5,"DRC-2, concentration 2.5",-4%
same,% inhibition apPOL 180' 5,"DRC-2, concentration 5",-4%
same,% inhibition apPOL 180' 10,"DRC-2, concentration 10",13%
same,% inhibition apPOL 180' 20,"DRC-2, concentration 20",35%
same,% inhibition apPOL 180' 40,"DRC-2, concentration 40",48%
same,% inhibition apPOL 180' 80,"DRC-2, concentration 80",69%
O=C(CSc1nnc(-c2ccco2)[nH]1)c1ccc(Cl)cc1 [KU0029065],DNA Pol,[1],40
same,% inhibition Apo pol 10',"DRC-1, concentration 2.5",25.2453%
same,% inhibition Apo pol 10',"DRC-1, concentration 5",33.7865%
same,% inhibition Apo pol 10',"DRC-1, concentration 10",71.7651%
same,% inhibition Apo pol 10',"DRC-1, concentration 20",81.7468%
same,% inhibition Apo pol 10',"DRC-1, concentration 40",82.8592%
same,% inhibition Apo pol 10',"DRC-1, concentration 80",73.082%
same,% inhibition Apol 90',"DRC-1, concentration 2.5",14.2802%
same,% inhibition Apol 90',"DRC-1, concentration 5",16.5602%
same,% inhibition Apol 90',"DRC-1, concentration 10",48.3315%
same,% inhibition Apol 90',"DRC-1, concentration 20",65.2838%
same,% inhibition Apol 90',"DRC-1, concentration 40",75.799%
same,% inhibition Apol 90',"DRC-1, concentration 80",79.1006%
same,% inhibition apPOL 180',"DRC-1, concentration 2.5",10.7111%
same,% inhibition apPOL 180',"DRC-1, concentration 5",8.15%
same,% inhibition apPOL 180',"DRC-1, concentration 10",30.1123%
same,% inhibition apPOL 180',"DRC-1, concentration 20",47.4786%
same,% inhibition apPOL 180',"DRC-1, concentration 40",65.3498%
same,% inhibition apPOL 180',"DRC-1, concentration 80",74.7958%
same,% inhibition Apo pol 5',"DRC-2, concentration 2.5",-0.174%
same,% inhibition Apo pol 5',"DRC-2, concentration 5",-0.717%
same,% inhibition Apo pol 5',"DRC-2, concentration 10",6%
same,% inhibition Apo pol 5',"DRC-2, concentration 20",26%
same,% inhibition Apo pol 5',"DRC-2, concentration 40",-5.63%
same,% inhibition Apo pol 5',"DRC-2, concentration 80",-27%
same,% inhibition Apol 40',"DRC-2, concentration 2.5",0.888%
same,% inhibition Apol 40',"DRC-2, concentration 5",0.406%
same,% inhibition Apol 40',"DRC-2, concentration 10",7%
same,% inhibition Apol 40',"DRC-2, concentration 20",17%
same,% inhibition Apol 40',"DRC-2, concentration 40",0.537%
same,% inhibition Apol 40',"DRC-2, concentration 80",-50%
same,% inhibition ApPOL 90',"DRC-2, concentration 2.5",1.21%
same,% inhibition ApPOL 90',"DRC-2, concentration 5",-0.831%
same,% inhibition ApPOL 90',"DRC-2, concentration 10",6%
same,% inhibition ApPOL 90',"DRC-2, concentration 20",23%
same,% inhibition ApPOL 90',"DRC-2, concentration 40",-0.138%
same,% inhibition ApPOL 90',"DRC-2, concentration 80",-49%
same,% inhibition apPOL 180',"DRC-2, concentration 2.5",0.33%
same,% inhibition apPOL 180',"DRC-2, concentration 5",-8%
same,% inhibition apPOL 180',"DRC-2, concentration 10",-2.67%
same,% inhibition apPOL 180',"DRC-2, concentration 20",15%
same,% inhibition apPOL 180',"DRC-2, concentration 40",-5%
same,% inhibition apPOL 180',"DRC-2, concentration 80",-45%
same,DNA Pol,"primary screen value, DNA Pol",40
